Counter-ions that a name gives are not always drawn.
Legend:
human M2 macrophages = assay: Inhibition of human M2 macrophage activity, hCCL22 in culture supernatant by ELISA; assay type: cell-based; settings: hCCL22 secretion, THP-1 derived M2-like macrophages, compound present during 72 hours of differentiation
Method in brief: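 THP-1 monocytes were differentiated with 100 ng/mL PMA for 24 h, then polarized with 25 ng/mL hIL-4 plus 25 ng/mL hIL-13 for 72 h. Compounds were present throughout the 72 h polarization. CCL22 in the supernatant was quantified by ELISA to give inhibition or EC50.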

melanoma cells (B316F10) = assay: Tumor growth inhibition in C57BL/6 syngeneic mouse model implanted with melanoma cells; assay type: in vivo; settings: 20 mg/kg orally once a day for 9 or 10 days, female C57BL/6 mice with implanted melanoma cells, tumor volume vs control group; for inhibition in vivo at 20 mg/kg: Mus musculus, po, read-out: TGI (%)
Description: The tumor growth inhibition effect of benzopyrene derivatives was evaluated in a C57BL/6 mouse tumor model (syngeneic mouse model) in which melanoma cells (B316F10) derived from C57BL/6 mice are implanted.
After the quarantine and acclimation period was over, a cell suspension prepared with 5×10^5 cells/0.1 mL PBS was filled into a disposable syringe and administered in an amount of 0.1 mL PBS/head subcutaneously to the right back of healthy test animals (female C57BL/6, 7 weeks old) for implantation. After cell line implantation, general symptoms were observed once daily during the engraftment and growth period. Animals with no abnormalities in their health and whose tumor volume reached 50 to 100 mm^3 when measured with a digital caliper were selected. Then, based on tumor volume and body weight, the groups were separated so that the average tumor volume per group was 70 to 100 mm^3. Ten (10) animals were separated per group, and 20 mg/kg of benzopyran derivatives were administered orally once a day for 9 or 10 days. Tumor volume was measured once every 2 or 3 days.
The measured tumor volume of the test compound administered groups was compared with that of the control group and is represented in Table 2 as the tumor growth inhibition (TGI, %).

Compound | EC50 (human M2 macrophages) [µM] | TGI (%) (melanoma cells (B316F10); phosphate) | inhibition in vivo at 20 mg/kg (melanoma cells (B316F10)) [%] | TGI (%) (melanoma cells (B316F10))
CC(=O)c1ccc(-n2c(=O)n3n(c2=O)C2C(=CC3)C(C)(C)Oc3cc(OP(=O)(O)O)ccc32)cc1 (stereo not drawn) [Example 70, disodium 2-(4-acetylphenyl)-7,7-dimethyl-1,3-dioxo-2,3,5,12b-tetrahydro-1H,7H-chromeno[4,3-c][1,2,4]triazolo[1,2-a]pyridazin-10-yl phosphate] | 9.4 | 26.2 |  | 
CCN(c1ccc2c(c1)OC(C)(C)C1=CCn3c(=O)n(-c4ccc(C(C)=O)cc4)c(=O)n3C12)C(C)C (stereo not drawn) [Example 46, 2-(4-acetylphenyl)-10-(ethyl(isopropyl)amino)-7,7-dimethyl-5,12b-dihydro-1H,7H-chromeno[4,3-c][1,2,4]triazolo[1,2-a]pyridazine-1,3(2H)-dione] | 7 |  | 25 to 66 | 
CC(=O)c1ccc(-n2c(=O)n3n(c2=O)C2C(=CC3)C(C)(C)Oc3cc(OC(=O)N4CCCC4)ccc32)cc1 (stereo not drawn) [Example 74, 2-(4-acetylphenyl)-7,7-dimethyl-1,3-dioxo-2,3,5,12b-tetrahydro-1H,7H-chromeno[4,3-c][1,2,4]triazolo[1,2-a]pyridazin-10-yl pyrrolidine-1-carboxylate] |  |  | 25 to 66 | 
CC(=O)c1ccc(-n2c(=O)n3n(c2=O)C2C(=CC3)C(C)(C)Oc3cc(OC(=O)CN(C)C)ccc32)cc1 (stereo not drawn) [Example 72, 2-(4-acetylphenyl)-7,7-dimethyl-1,3-dioxo-2,3,5,12b-tetrahydro-1H,7H-chromeno[4,3-c][1,2,4]triazolo[1,2-a]pyridazin-10-yl dimethylglycinate hydrochloride] | 4.7 |  | 25 to 66 | 
CC(=O)Oc1ccc2c(c1)OC(C)(C)C1=CCn3c(=O)n(-c4ccc(C(C)=O)cc4)c(=O)n3C12 (stereo not drawn) [Example 60, 2-(4-acetylphenyl)-7,7-dimethyl-1,3-dioxo-2,3,5,12b-tetrahydro-1H,7H-chromeno[4,3-c][1,2,4]triazolo[1,2-a]pyridazin-10-yl acetate] |  |  | 56.5 | 
CC(=O)c1ccc(-n2c(=O)n3n(c2=O)C2C(=CC3)C(C)(C)Oc3cc(OP(=O)(O)O)ccc32)cc1 (stereo not drawn) [Example 69, 2-(4-acetylphenyl)-7,7-dimethyl-1,3-dioxo-2,3,5,12b-tetrahydro-1H,7H-chromeno[4,3-c][1,2,4]triazolo[1,2-a]pyridazin-10-yl dihydrogen phosphate] |  |  | 25 to 66 | 
CC1(C)Oc2cc(N3CCCC3)ccc2C2C1=CCn1c(=O)n(-c3ccc(C(=O)O)cc3)c(=O)n12 (stereo not drawn) [Example 44, 4-(7,7-dimethyl-1,3-dioxo-10-(pyrrolidin-1-yl)-5,12b-dihydro-1H,7H-chromeno[4,3-c][1,2,4]triazolo[1,2-a]pyridazin-2(3H)-yl)benzoic acid] | 9.5 |  | 25 to 66 | 
CC(=O)c1ccc(-n2c(=O)n3n(c2=O)C2C(=CC3)C(C)(C)Oc3cc(OC(=O)N(C)CCC(=O)O)ccc32)cc1 (stereo not drawn) [Example 91, 3-((((2-(4-acetylphenyl)-7,7-dimethyl-1,3-dioxo-2,3,5,12b-tetrahydro-1H,7H-chromeno[4,3-c][1,2,4]triazolo[1,2-a]pyridazin-10-yl)oxy)carbonyl)(methyl)amino)propanoic acid] |  |  | 25 to 66 | 
COCCOC(=O)Oc1ccc2c(c1)OC(C)(C)C1=CCn3c(=O)n(-c4ccc(C(C)=O)cc4)c(=O)n3C12 (stereo not drawn) [Example 73, 2-(4-acetylphenyl)-7,7-dimethyl-1,3-dioxo-2,3,5,12b-tetrahydro-1H,7H-chromeno[4,3-c][1,2,4]triazolo[1,2-a]pyridazin-10-yl (2-methoxyethyl) carbonate] |  |  | 31 | 
CC(=O)c1ccc(-n2c(=O)n3n(c2=O)C2C(=CC3)C(C)(C)Oc3cc(OC(=O)[C@@H](N)CC(C)C)ccc32)cc1 (stereo partly drawn) [Example 81, 2-(4-acetylphenyl)-7,7-dimethyl-1,3-dioxo-2,3,5,12b-tetrahydro-1H,7H-chromeno[4,3-c][1,2,4]triazolo[1,2-a]pyridazin-10-yl L-leucinate 2,2,2-trifluoroacetic acid] |  |  | 25 to 66 | 
CC(=O)C(=O)N1CCN(C(=O)Oc2ccc3c(c2)OC(C)(C)C2=CCn4c(=O)n(-c5ccc(C(C)=O)cc5)c(=O)n4C23)CC1 (stereo not drawn) [Example 68, 2-(4-acetylphenyl)-7,7-dimethyl-1,3-dioxo-2,3,5,12b-tetrahydro-1H,7H-chromeno[4,3-c][1,2,4]triazolo[1,2-a]pyridazin-10-yl 4-(2-oxopropanoyl)piperazine-1-carboxylate] | 74.7 |  | 25 to 66 | 
CC(=O)c1ccc(-n2c(=O)n3n(c2=O)C2C(=CC3)C(C)(C)Oc3cc(OC(=O)N4CCN(C(=O)[C@@H]5CCCN5)CC4)ccc32)cc1 (stereo partly drawn) [Example 82, 2-(4-acetylphenyl)-7,7-dimethyl-1,3-dioxo-2,3,5,12b-tetrahydro-1H,7H-chromeno[4,3-c][1,2,4]triazolo[1,2-a]pyridazin-10-yl 4-(L-prolyl)piperazine-1-carboxylate hydrochloride] | 68.6 |  | 66.3 | 
CC(=O)c1ccc(-n2c(=O)n3n(c2=O)C2C(=CC3)C(C)(C)Oc3cc(OC(=O)N(C)CCC(=O)O)ccc32)cc1 (stereo not drawn) [Example 92, sodium 3-((((2-(4-acetylphenyl)-7,7-dimethyl-1,3-dioxo-2,3,5,12b-tetrahydro-1H,7H-chromeno[4,3-c][1,2,4]triazolo[1,2-a]pyridazin-10-yl)oxy)carbonyl)(methyl)amino)propanoate] |  |  |  | 25.5
CC(=O)c1ccc(-n2c(=O)n3n(c2=O)C2C(=CC3)C(C)(C)Oc3cc(OC(=O)N(C)C)ccc32)cc1 (stereo not drawn) [Example 62, 2-(4-acetylphenyl)-7,7-dimethyl-1,3-dioxo-2,3,5,12b-tetrahydro-1H,7H-chromeno[4,3-c][1,2,4]triazolo[1,2-a]pyridazin-10-yl dimethylcarbamate] | 41.3 |  | 32.3 | 
